# Assay results from US20250188457A1, “COMPOSITIONS AND METHODS FOR THE TREATMENT OF GLIOBLASTOMA BY INHIBITION OF THE TFPI2-CD51-STAT6 SIGNALING AXIS” (Northwestern University, priority 2023, published 2025).
# Columns and labels:
# 005 GSC and CT2A tumors = assay: Survival of C57BL/6 mice implanted with 005 GSCs or CT2A cells; format: in vivo, mouse; settings: for survival of mice bearing 005 GSC and CT2A tumors, combination with anti-PD1 therapy: anti-PD1 10 mg/kg i.p. on days 11, 14 and 17, MK-0429 30 mg/kg or AS1517499 10 mg/kg i.p. every other day
# Description: (§1) Female C57BL/6 (#0000664), nude mice (#007850), and B6.12952(C)-Stat6tm1Gru/J mice (STAT6-KO; #005977) at 6 weeks of age were purchased from the Jackson Laboratory. Mice were grouped by 5 animals and maintained in a pathogen-free IVC System (San Diego, CA) for a week before the experiment. All animal experiments were performed with the approval of the Institutional Animal Care and Use Committee (IACUC) at Northwestern University. The intracranial xenograft tumor models were established (Refs. 11, 61; incorporated by reference in their entireties). Ketamine (100 mg/kg) and xylazine (20 mg/kg) were used for anesthetizing mice through intraperitoneal injection. Then a dental drill was used to open a small hole in the skull 1.2 mm anterior and 3.0 mm lateral to the bregma. A total volume of […] cells in FBS-free DMEM was injected into the right caudate nucleus 3 mm below the surface of the brain using a […] Hamilton syringe with an unbeveled 30-gauge needle. Total three doses of 20 mg/kg meloxicam were administrated before and after surgery through subcutaneous injection. After cancer cell implantation, mice were monitored for recording survival. Mice with neurological deficits or moribund appearance were sacrificed. Following the transcardiac perfusion with PBS and 4% paraformaldehyde (PFA), brains were removed and fixed in 4% PFA, and were processed for paraffin-embedded blocks or cryosectioning.
# GSC23 and GSC262 cells [1] = assay: Tumorsphere formation assay (GSC self-renewal); format: cell-based, human; settings: GSC23 and GSC262 with TFPI2 OE plasmid; JNK-IN-8 10 nM, WP1066 20 nM
# Description: The tumorsphere formation assay was performed (Ref. 79; incorporated by reference in its entirety). GSCs were treated with different concentrations of recombinant TFPI2 protein for 24 hrs with or without inhibition of JNK or STAT3, or modified with TFPI21 KO, knockdown or overexpression. After treatment or genetic modifications, cells were centrifuged at 1500 rpm for 5 min and resuspended in the plain cell culture media without additional supplements. Cells were then seeded into a 96-wells plate at 100 cells/well. The number of tumorspheres in each well was imaged and quantified after 10 days.
# GSC23 and GSC262 cells [2] = assay: CFSE proliferation analysis of GSCs; format: cell-based, human; settings: GSC23 and GSC262 with TFPI2 OE plasmid; JNK-IN-8 10 nM, WP1066 20 nM
# Description: Cell proliferation was assessed using the CellTrace CFSE Cell Proliferation Kit (Invitrogen, #C34554). 10^6 cells were harvested and incubated with CFSE working solution (1:1000) for 20 min at 37° C. The staining was stopped by adding complete cell culture media. After washing, cells were continuously cultured for 5 days in the dark. At the end of the incubation, cells were collected by spinning down at 1500 rpm for 5 min. The cell pellet was resuspended in cell staining buffer for flow cytometry analysis. The percentage of CFSE positive peaks over the undivided peak (generation 0) was analyzed using the ImageJ software.
# GSC23 and GSC262 cells [3] = assay: Apoptosis analysis of GSCs (Apotracker/PI flow cytometry); format: cell-based, human; settings: GSC23 and GSC262 with TFPI2 OE plasmid; JNK-IN-8 10 nM, WP1066 20 nM
# Description: Cell apoptosis was evaluated using Apotracker Green (BioLegend, #427402) (Ref. 78; incorporated by reference in its entirety). 10^5 cells were collected and stained with Apotracker (1:10 dilution) in […] cell staining buffer. […] propidium iodide (PI) solution (BioLegend, #421301) was added for labeling late apoptotic and necrotic cells. After washing with PBS twice, FITC and PI signals were analyzed in BD FACSymphony flow cytometer.
# STAT3 = assay: Immunoblot for P-STAT3 and STAT3 in GSCs; format: cell-based, human; settings: GSC23 and GSC262, TFPI2 OE or TFPI2 recombinant protein 20 ng/ml; JNK-IN-8 10 nM
# Description: (§2) The protein expression in cells was determined by western blotting analysis (Ref. 61; incorporated by reference in its entirety). Cells were homogenized in RIPA lysis buffer containing phosphatase/protease cocktail inhibitors (Cell Signaling Technology, #5870). The protein concentration was determined by BCA Protein Assay Kit (Thermo Fisher Scientific, #P123225). Protein solution was mixed with the Leammli sample buffer and heated at 95° C. before loading to SurePAGE gels (GenScript, #M00653). The gels were run at a constant voltage of 80 V and then transferred to 0.2 μm nitrocellulose membrane (Bio-Rad, #1620112) using the Trans-Blot Turbo system (Bio-Rad) with a preprogrammed standard protocol for 30 min. Nitrocellulose membrane was incubated with 5% dry milk to block any unspecific staining. […]
# GSC23 tumor = assay: Survival of nude mice implanted with GSC23 expressing TFPI2 overexpression plasmid; format: in vivo, mouse; settings: 30 mg/kg body weight, i.p., every day, on day 7
# Description: as §1, with “Following the transcardiac perfusion with PBS and 4% paraformaldehyde (PFA), brains were removed and fixed in 4% PFA, and were processed for paraffin-embedded blocks or cryosectioning.” left out
# JNK = assay: Immunoblot for P-JNK and JNK in GSCs; format: cell-based, human; settings: GSC23 and GSC262, TFPI2 OE or TFPI2 recombinant protein 20 ng/ml; WP1066 20 nM
# Description: as §2
SMILES,"survival of mice implanted with 005 GSCs and CT2A cells, inhibitor alone (005 GSC and CT2A tumors; MK-0429 30 mg/kg or AS1517499 10 mg/kg, i.p., every other day, on day 7, Cilengitide dose not given)","survival of mice bearing 005 GSC and CT2A tumors, combination with anti-PD1 therapy (005 GSC and CT2A tumors)",self-renewal effect of increasing cellular TFPI2 in GSCs (tumorspheres) (GSC23 and GSC262 cells [1]),proliferation effect of increasing cellular TFPI2 in GSCs (GSC23 and GSC262 cells [2]),apoptotic effect of increasing cellular TFPI2 in GSCs (GSC23 and GSC262 cells [3]),TFPI2-induced STAT3 activation (P-STAT3) (STAT3),shortening of survival by TFPI2 overexpression in GSC23 tumor-bearing mice (GSC23 tumor),TFPI2-induced JNK activation (P-JNK) (JNK)
CC(C)[C@H]1C(=O)N[C@@H](CCCN=C(N)N)C(=O)NCC(=O)N[C@@H](CC(=O)O)C(=O)N[C@H](Cc2ccccc2)C(=O)N1C [Cilengitide],significantly extended the survival,enhanced the efficacy,–,–,–,–,–,–
Cc1cc(NC(=O)c2cccc(NC(=O)/C=C/CN(C)C)c2)ccc1Nc1nccc(-c2cccnc2)n1 [JNK-IN-8],–,–,negated,negated,negated,blocked,abolished,–
COc1ccc([C@H](CC(=O)O)N2CCN(CCCc3ccc4c(n3)NCCC4)C2=O)cn1 [MK-0429],–,synergized,–,–,–,–,–,–
C[C@H](NC(=O)/C(C#N)=C/c1cccc(Br)n1)c1ccccc1 [WP1066],–,–,negated,negated,negated,–,abolished,no effect
